The values below come from PMC3598906 (2013).

In assay [1] the test system is Htel (DNA, G4) TTAGGG. Nature of the assay: 1H NMR titration and NOESY. The settings on record: 150 mM KCl, 25 mM KH2PO4, 1 mM EDTA, pH 6.7, 25 °C.
Assay [2] deals with Htel (DNA, G4) TTAGGG. Nature of the assay: imino proton NMR melting. The settings on record: 150 mM KCl, 25 mM KH2PO4; 1 mM EDTA, pH 6.7; imino signals lost at 45-55 °C free, still observed at 55 °C bound.
Assay [3] has as its system 24bcl (DNA, G4) CGGGCGCGGGAGGAAGGGGGCGGG
Nature of the assay: competitive dialysis. The settings on record: potassium phosphate buffer; 50 µM DNA, 1 µM ligand, 24 h, room temperature.

In assay [4] the test system is ds6 (DNA, duplex) CGATCG. Nature of the assay: fluorescence titration. As to conditions: 185 mM KCl, 185 mM NaCl; pH 7, 25 °C; up to 25 µM DNA, 1 µM ligand; n.d., no change in fluorescence.
Assay [5] deals with ds26 (DNA, duplex) CAATCGGATCGAATTCGATCCGATTG
Nature of the assay: competitive dialysis. The settings on record: potassium phosphate buffer, 50 µM DNA, 1 µM ligand, 24 h, room temperature.

Assay [6] has as its system Htel (DNA, G4) TTAGGG. Nature of the assay: fluorescence titration, Equispec fit. As to conditions: 185 mM KCl, 185 mM NaCl; 6 mM Na2HPO4, 2 mM NaH2PO4, 1 mM EDTA, pH 7, 25 °C; macroscopic; 1 µM ligand.
In assay [7] the test system is cmyc (DNA, G4) GGGGAGGGTGGGGAGGGTGGGGAAGGTGGGG
Nature of the assay: competitive dialysis. The settings on record: potassium phosphate buffer; 50 µM DNA, 1 µM ligand, 24 h, room temperature.

Assay [8] has as its system HT24 (DNA, G4) TAGGGTTAGGGTTAGGGTTAGGGT
Description: competitive dialysis. As to conditions: potassium phosphate buffer; 50 µM DNA, 1 µM ligand, 24 h, room temperature.

Assay [9] relates to ds8 (DNA, duplex) GCGATCGC
Description: 1H NMR titration. As to conditions: 70 mM KCl, 10 mM KH2PO4; 0.2 mM EDTA, pH 7.0; line broadening only, no intermolecular NOE; ions stated for other duplexes.

Assay [10] deals with ds6 (DNA, duplex) CGATCG. Nature of the assay: 1H and 31P NMR titration. The settings on record: 70 mM KCl, 10 mM KH2PO4; 0.2 mM EDTA, pH 7.0; [drug]/[DNA] up to 3.

In the case of `CN1CCN(C(=O)c2ccc3c(NC4CCN(Cc5ccccc5)CC4)c4ccccc4nc3c2)CC1`, the binding entry in the assay with Htel (DNA, G4) TTAGGG [1] (site at T2, A3, G4) is given as “yes”; in the assay with Htel (DNA, G4) TTAGGG [2], “yes”; in assay [3], “yes”; with ds6 (DNA, duplex) CGATCG [4], “no”; in [5] it was “no”; in assay [7] it was “yes”. Besides, the binding result in [8] is on record as “yes”. Moreover, the “Logarithm of the binding constants” value in the assay with Htel (DNA, G4) TTAGGG [6] is 4.4 ± 0.1 log (M-1).
On to `CN1CCN(C(=O)c2cccc3c(NCCc4c[nH]c5ccccc45)c4ccccc4nc23)CC1`, for which the binding entry with Htel (DNA, G4) TTAGGG [1] (intercalates between A3 and G4) is “yes”; with Htel (DNA, G4) TTAGGG [2] it was “yes”; in assay [9], “weak”; in [3], “yes”; with ds6 (DNA, duplex) CGATCG [4], “no”; in [5] (NMR suggests outside binding), “yes”. Further, the binding result was “no” with ds6 (DNA, duplex) CGATCG [10]; “yes” in assay [7]; “yes” in [8]. Moreover, in the assay with Htel (DNA, G4) TTAGGG [6], the “Logarithm of the binding constants” value is recorded as 4.9 ± 0.1 log (M-1).
